Seven compounds from ChEMBL document CHEMBL1127390, “Novel acyclic nucleotides and nucleoside 5'-triphosphates imitating 2',3'-dideoxy-2',3'-didehydronucleotides: synthesis and biological properties” (1994) can be followed below.

The source made the active and inactive calls. The rule behind the calls is not given here.

The subject of assay [1] is MT4. Put plainly: Anti HIV-l activity in infected MT-4 cells cultures; NA is NO Activity. The assay is classed as functional, cell-based. To be noted: Homo sapiens.
The target of assay [2] is Human immunodeficiency virus type 1 reverse transcriptase (Human immunodeficiency virus 1) (UniProt Q72547). Put plainly: Tested for percent inhibition of the human immunodeficiency virus (HIV) reverse transcriptase in MT-4. The assay is classed as functional.
Assay [3] shares this target. The experiment in a line: In vitro effective dose for the inhibition of human immunodeficiency virus (HIV) reverse transcriptase in MT-4 and peripheral lymphocyte (PBL) cell cultures; NI is No Inhibition up to a concentration of 100 uM. The assay is classed as functional.
Assay [4] deals with MT4. The experiment in a line: Activity in HIV-l infected MT-4 cells cultures; No activity. The format is functional, cell-based. To be noted: Homo sapiens.
The test system of assay [5] is MT4. The experiment in a line: Anti HIV-l activity in infected MT-4 cells cultures. The format is functional. To be noted: Homo sapiens, read-out: ED50 (the source's name).

For `Nc1ccn(C/C=C\COCP(=O)(O)O)c(=O)n1`, the ED50 result in the assay with MT4 [1] was “inactive”.
In turn, `Nc1ccn(C/C=C\COCP(=O)(O)OP(=O)(O)OP(=O)(O)O)c(=O)n1` registered an ED50 in assay [2] of 50 µM.
Consider `Nc1ncnc2c1ncn2C/C=C\CCOP(=O)(O)OP(=O)(O)OP(=O)(O)O`, for which the ED50 result in assay [3] is “No inhibition”.
As to `Nc1nc(O)c2ncn(C/C=C\COCP(=O)(O)O)c2n1`, the ED50 entry in the assay with MT4 [1] was “inactive”.
`Nc1ncnc2c1ncn2C/C=C\CO`: the ED50 result with MT4 [4] is “inactive”.
Regarding `Cc1cn(C/C=C\COCP(=O)(O)O)c(=O)[nH]c1=O`, the ED50 result with MT4 [1] was “inactive”.
Take `Nc1ncnc2c1ncn2C/C=C\COCP(=O)(O)O`: in the assay with MT4 [5], the EC50 is 9 µM.
